Measurements as given in patent US7022846B2, “Metabolites of prinomastat and their synthesis” (Agouron Pharmaceuticals, Inc., priority 2002, dated 2006).

Key:
[1] = biological target: T1, hMATR (Homo sapiens, UniProt P09237); assay: Ki for MMP inhibition, hMATR; format: biochemical
T1 sequence (P09237 95-267): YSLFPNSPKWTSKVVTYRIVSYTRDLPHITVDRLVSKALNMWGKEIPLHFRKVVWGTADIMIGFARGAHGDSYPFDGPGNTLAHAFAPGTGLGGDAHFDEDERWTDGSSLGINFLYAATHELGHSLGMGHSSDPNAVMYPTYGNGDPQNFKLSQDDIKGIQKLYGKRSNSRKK
From the text: (§1) The present invention is further directed to methods of inhibiting metalloproteinase activity, for example in mammalian tissue, by administering metabolites of prinomastat, such as a compound of the formula 11 or 22, or a pharmaceutically acceptable prodrug, salt or solvate thereof. The activity of the inventive compounds as inhibitors of metalloproteinase activity, such as the activity of MMPs (including stromelysins, collagenases, gelatinases, and/or matrilysin) and/or TNF-[…] convertase, may be measured by any of the methods available to those skilled in the art, including in vivo and/or in vitro assays. Examples of suitable assays fro activity measurements include those described in Anal. Biochem., 147, 437 (1995), Anal. Biochem., 180, 110 (1989), FEBS, 96, 263 (1992) and European Patent Application No. 0 606 046.

[2] = Metabolic composition of human plasma after single oral dose of prinomastat (LC-MS/MS); format: in vivo; conditions: single 100 mg oral dose of prinomastat
Method: Five healthy male volunteers received a 100 mg oral dose of prinomastat tablets in a phase I, double-blind, ascending single dose study. Blood samples were drawn at pre-selected time points, and the plasma was separated by centrifugation and stored at −20° C.
The human plasma samples at 1.5, 4, 8 and 12 hours pooled from five male volunteers were selected for the analysis of metabolites by liquid chromatography tandem mass spectroscopy (LC-MS/MS). Samples were treated with three volumes of an AcN:MeOH mixture (2:1) to precipitate plasma proteins. Following centrifugation, protein pellets were separated and washed twice with two volumes of the same AcN:MeOH mixture. The combined supernatant was evaporated to dryness under vacuum using a SpeedVac™ (Savant Instrument, Holbrook, N.Y.), and the dried residue was reconstituted in 0.1% formic acid-acetonitrile (90:10), and analyzed by LC-MS/MS.
Two LC-MS/MS systems were used to analyze the plasma samples. […]
The relative peak heights of prinomastat and its metabolites in the LC-MS reconstructed ion chromatograms (RIC) were used to estimate the relative abundance of each component, which was expressed as percent of total prinomastat related compounds. […]
Human plasma pooled from five male volunteers was analyzed for metabolites at 1.5 hr, 4, 8 and 12 hours. […]

[3] = biological target: hCOL3 (Homo sapiens, UniProt P45452); assay: Ki for MMP inhibition, hCOL3; format: biochemical
From the text: as §1

[4] = biological target: hSLN (Homo sapiens, UniProt P08254); assay: Ki for MMP inhibition, hSLN; format: biochemical
Sequence of hSLN (P08254 100-477): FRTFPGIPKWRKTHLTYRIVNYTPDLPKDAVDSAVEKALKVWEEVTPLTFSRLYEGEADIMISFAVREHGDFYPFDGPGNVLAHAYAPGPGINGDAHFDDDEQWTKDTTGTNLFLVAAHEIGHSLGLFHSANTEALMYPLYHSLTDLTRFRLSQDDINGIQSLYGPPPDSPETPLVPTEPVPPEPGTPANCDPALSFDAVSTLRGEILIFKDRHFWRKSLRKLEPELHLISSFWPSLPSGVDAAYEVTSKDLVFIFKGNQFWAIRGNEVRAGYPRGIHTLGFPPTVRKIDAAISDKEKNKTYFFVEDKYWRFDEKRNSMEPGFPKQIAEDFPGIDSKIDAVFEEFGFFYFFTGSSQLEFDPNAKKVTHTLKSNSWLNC
From the text: as §1

[5] = biological target: T2, hGELA (Homo sapiens, UniProt P08253); assay: Ki for MMP inhibition, hGELA; format: biochemical
T2 sequence (P08253 110-660): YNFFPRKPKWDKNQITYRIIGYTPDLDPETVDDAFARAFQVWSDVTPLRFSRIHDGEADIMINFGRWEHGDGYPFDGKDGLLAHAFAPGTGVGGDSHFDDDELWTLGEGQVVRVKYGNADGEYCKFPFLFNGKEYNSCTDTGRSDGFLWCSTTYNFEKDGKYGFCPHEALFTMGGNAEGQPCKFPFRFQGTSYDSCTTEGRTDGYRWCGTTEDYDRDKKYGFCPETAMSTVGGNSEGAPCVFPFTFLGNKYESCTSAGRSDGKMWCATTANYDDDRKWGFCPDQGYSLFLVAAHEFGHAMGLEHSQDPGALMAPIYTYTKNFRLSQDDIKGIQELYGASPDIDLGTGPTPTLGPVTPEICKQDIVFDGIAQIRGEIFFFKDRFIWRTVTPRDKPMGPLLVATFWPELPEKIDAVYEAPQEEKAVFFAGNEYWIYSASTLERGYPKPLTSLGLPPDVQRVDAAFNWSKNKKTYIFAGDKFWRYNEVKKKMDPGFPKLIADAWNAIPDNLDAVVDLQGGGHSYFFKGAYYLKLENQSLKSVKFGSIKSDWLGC
From the text: as §1

[6] = biological target: T3, hCOL1 (Homo sapiens, UniProt P03956); assay: Ki for MMP inhibition, hCOL1; format: biochemical
T3 sequence (P03956 100-469): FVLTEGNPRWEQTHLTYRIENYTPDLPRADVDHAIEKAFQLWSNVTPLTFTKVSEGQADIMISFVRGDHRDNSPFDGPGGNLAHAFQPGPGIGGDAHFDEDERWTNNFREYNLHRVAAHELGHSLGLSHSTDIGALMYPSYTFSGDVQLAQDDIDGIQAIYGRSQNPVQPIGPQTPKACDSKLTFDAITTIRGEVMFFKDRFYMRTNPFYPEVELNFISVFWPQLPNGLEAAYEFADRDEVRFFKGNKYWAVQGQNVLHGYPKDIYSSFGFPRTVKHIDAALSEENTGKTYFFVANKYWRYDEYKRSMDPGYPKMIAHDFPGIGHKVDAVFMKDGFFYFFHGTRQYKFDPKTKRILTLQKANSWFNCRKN
From the text: as §1

Row | Ki [1] [nM] | share of the total drug-related substance in human plasma ([2]; later time points) [%] | Ki [3] [nM] | Ki [4] [nM] | Ki [5] [nM] | Ki [6] [nM] | relative abundance among circulating drug-related compounds in human plasma ([2]; early time points) | Structure (SMILES)
1 | 1140 | ≤ 50 | 4 | 5.1 | 6.6 | 396 |  | CC1(C)SCCN(S(=O)(=O)c2ccc(Oc3cc[n+]([O-])cc3)cc2)[C@H]1C(=O)NO [M6, (3S)-N-hydroxy-4-(4-((1-oxy-pyrid-4-yl)oxy)benzenesulfonyl)-2,2-dimethyl-tetrahydro-2H-1,4-thiazine-3-carboxamide]
2 |  |  |  |  |  |  | major circulating compound | CC1(C)SCCN(S(=O)(=O)c2ccc(Oc3ccncc3)cc2)[C@H]1C(=O)NO [parent drug, (3S)-N-hydroxy-4-(4-(pyrid-4-yloxy)benzenesulfonyl)-2,2-dimethyl-tetrahydro-2H-1,4-thiazine-3-carboxamide, reference compound]
